{"source": "patent US20060009425A1", "about": "“Oral formulations of paricalcitol” (priority 2004, published 2006)", "key": {"[1]": {"assay": "Single and multiple dose pharmacokinetics, 4 μg QD vs 8 μg TIW, subjects in general good health (Example 5)", "type": "in vivo, human", "settings": "for AUC(0-inf) / Cmax / Tmax / half-life / AUC(0-t): human, plasma, oral; for half-life: harmonic mean ± pseudo-standard deviation", "protocol": "Methodology: This Phase I, multiple-dose, open-label, randomized study was conducted according to an […], crossover design. Subjects were randomized into two sequence groups of equal size of Regimens A and B. Subjects received the following regimens: • Regimen A: One 4 μg paricalcitol soft elastic capsule on Study Day 1 and one 4 μg paricalcitol capsule QD for 11 doses on Study Days 3 through 13. • Regimen B: Two 4 μg paricalcitol soft elastic capsules three times a week (8 μg TIW) for 6 doses on Study Days 1, 3, 5, 8, 10, and 12.\nThe paricalcitol dose was administered at approximately 0700, 30 minutes after breakfast was served on the dosing days of each period. Each dose was administered orally with 240 mL of water. A washout interval of at least 7 days separated the dose of period 1 and dose of period 2.\nSeven (7) mL blood samples (to yield at least 3 mL of plasma) were obtained by venipuncture for paricalcitol plasma concentration into appropriately labeled EDTA-containing collection tubes. The blood sampling was as shown below in Table 10.\nFor Regimen B, a blood sample was collected 48 hours after the Study Day 5 dose (Study Day 7) and immediately prior to dosing (0 hour) on Study Day 10.\nPlasma concentrations of paricalcitol were determined using a validated liquid chromatography-tandem mass spectrometric assay method at Abbott Laboratories, Abbott Park, Ill. (a proprietary method of Abbott Laboratories). The lower limit of quantification (abbreviated as “LOQ”) of paricalcitol was 0.02 ng/mL using a 0.6 mL plasma sample.\nPharmacokinetics: The following pharmacokinetic parameter values were determined using standard non-compartmental methods: maximum observed plasma concentration (Cmax), time to Cmax(Tmax), terminal phase elimination rate constant (β), terminal elimination half-life (t1/2), area under the plasma concentration vs. time curve extrapolated to infinite time (AUC0-∞) following the first dose and area under the plasma concentration vs. time curve over the dose interval at steady state (AUC0-τ; also referred to as AUC0-48 or AUC0-24 as appropriate). Accumulation index (AI) and degree of fluctuation (DFL) were also evaluated at steady state.\nStatistical Methods: An analysis of variance (ANOVA) was performed to compare single- and multiple-dose pharmacokinetics of paricalcitol. The model included effects for sequence, subject nested within sequence, day (i.e., first dose or last dose), and sequence by day interaction. The effect for subject was random, while all other effects were fixed. The analyzed variables include Tmax, β, and the logarithms of AUC and Cmax. The AUC value for the single dose was AUC0-∞, while the AUC for the multiple dose was AUC0-24. The trough concentrations were analyzed using the same ANOVA model described above to address the issue of steady state attainment for the QD regimen.\nThe logarithmic transformation was also used for AUC. The model had effects for sequence, subject nested within sequence, period and regimen. The effect for subject was random, while all other effects were fixed. […] Study Day 1 Tmax, β, dose-normalized Cmax and AUC0-∞ from Regimen A and Regimen B were analyzed using the same ANOVA model. […] This same model again was used to compare Regimen A and Regimen B with respect to AI values."}, "[2]": {"tested_on": "serum and urine pharmacodynamic markers", "assay": "Serum and urine pharmacodynamic markers, moderate to severe renal impairment (Example 4)", "description": "Blood samples for paricalcitol assay were collected by venipuncture into 7 mL evacuated EDTA-containing collection tubes within 5 minutes prior to dosing (0 hour) and at 0.5, 1, 2, 3, 4, 6, 8, 12, 24, 36, and 48 hours after dosing on Study Days 1 and 8. Sufficient blood was collected to provide approximately 2.5 mL plasma from each sample. In addition, urine was collected for 48 hours following Study Day 1 dosing. Serum and urine pharmacodynamic markers, were measured at selected time points in the study. Also, a 24 hr urine amount of urine pharmacodynamic markers were measured following paricalcitol dose on Study Days 1 and 8.\nPharmacodynamic: Serum pharmacodynamic markers [serum calcium, calcium-phosphorus product (Ca×P), serum phosphorus, serum bone specific alkaline phosphatase (AP), serum osteocalcin, serum C-terminal telopeptide of collagen (CTx), serum tartarate resistant acid phosphatase-type 5b (TRAP-5b), intact (iPTH) and whole PTH] were measured from samples collected immediately prior to dosing on Study Days 1, 3, 5, and 8. One additional sample was collected 48 hours following the Study Day 8 dose (on the morning of Study Day 10). Urine pharmacodynamic markers [calcium, creatinine and deoxy-pyridinoline (DPD)] were measured from samples collected immediately prior to dosing on Study Days 1 and 8, and during the intervals 0 to 4, 4 to 8, 8 to 12, and 12 to 24 hours after dosing on Study Days 1 and 8. In addition, these markers were measured using the first morning void sample on Study Days 3, 5, and 10.\nPharmacodynamic: Two-sample t-tests were performed to compare baseline pharmacodynamic marker values between the two renal impairment groups. For improving the normality of the distribution of the baseline values, natural logarithm transformations were made to all the pharmacodynamic markers except for the urine calcium and urine creatinine. The relationship between the % change from Study Day 1 to Study Day 10 and the Study Day 1 paricalcitol AUC0-∞ was investigated using linear regression. The Study Day 1 AUC0-∞ and the corresponding baseline value were independent variables. A one-sample t-test was performed for each group on the change from Study Day 1 to Study Day 8 in 24-hour amount of urine calcium and creatinine."}, "[3]": {"settings": "Regimen A 4 μg QD, Study Day 12"}, "[4]": {"settings": "Regimen A 4 μg QD, Study Day 13"}, "[5]": {"settings": "Regimen B 8 μg TIW, Study Day 1"}, "[6]": {"settings": "Regimen B 8 μg TIW, Study Day 12 and 13"}, "[7]": {"settings": "4 ug, Regimen A 4 μg QD, Study Day 1"}, "[8]": {"settings": "4 ug, Regimen A 4 μg QD, Study Day 12"}, "[9]": {"settings": "4 ug, Regimen A 4 μg QD, Study Day 13"}, "[10]": {"settings": "8 ug, Regimen B 8 μg TIW, Study Day 1"}, "[11]": {"settings": "8 ug, Regimen B 8 μg TIW, Study Day 12 and 13"}, "[12]": {"settings": "moderate and severe renal impairment groups, supra-pharmacologic fixed doses, 1-week study"}, "[13]": {"settings": "moderate renal impairment, Study Day 1"}, "[14]": {"settings": "moderate renal impairment, Study Day 8"}, "[15]": {"settings": "severe renal impairment, Study Day 1"}, "[16]": {"settings": "severe renal impairment, Study Day 8"}}, "note": "Read-outs that look alike come from different tables or passages of the source."}
{"molecule": "C[C@H](/C=C/[C@H](C)C(C)(C)O)[C@H]1CC[C@H]2/C(=C/C=C3C[C@@H](O)C[C@H](O)C3)CCC[C@]12C", "note": "[Paricalcitol, 19-nor-1α,3β,25-trihydroxy-9,10-secoergosta-5(Z); 7(E),22(E)-triene]", "values": [{"measurement": "steady state reached by", "setting": "[1]; 4 μg QD or 8 μg TIW", "value": "≤ 7", "unit": "Study Day"}, {"measurement": "CL/F", "setting": "[1]; Regimen A 4 μg QD, Study Day 1", "value": "3.95 ± 1.19^Φ L/h"}, {"measurement": "Vdβ/F", "setting": "[1]; Regimen A 4 μg QD, Study Day 1", "value": "38.9 ± 18.7^Φ L"}, {"measurement": "AI", "setting": "[1]; [3]", "value": "1.759 ± 1.829"}, {"measurement": "CL/F", "setting": "[1]; [3]", "value": "4.33 ± 2.08", "unit": "L/h"}, {"measurement": "Cmin", "setting": "[1]; [3]", "value": "0.005 ± 0.010", "unit": "ng/mL"}, {"measurement": "DFL", "setting": "[1]; [3]", "value": "2.584 ± 0.889"}, {"measurement": "Vdβ/F", "setting": "[1]; [3]", "value": "44.9 ± 23.0^ε L"}, {"measurement": "AI", "setting": "[1]; [4]", "value": "1.483 ± 1.442"}, {"measurement": "AUC/Dose (AUC0-24/Dose)", "setting": "[1]; [4]", "value": "0.226 ± 0.049", "unit": "ng·h/mL/µg"}, {"measurement": "CL/F", "setting": "[1]; [4]", "value": "4.65 ± 1.16", "unit": "L/h"}, {"measurement": "Cmin", "setting": "[1]; [4]", "value": "0.001 ± 0.005", "unit": "ng/mL"}, {"measurement": "DFL", "setting": "[1]; [4]", "value": "2.761 ± 0.761"}, {"measurement": "Vdβ/F", "setting": "[1]; [4]", "value": "43.7 ± 17.9^ε L"}, {"measurement": "CL/F", "setting": "[1]; [5]", "value": "3.65 ± 1.61", "unit": "L/h"}, {"measurement": "Vdβ/F", "setting": "[1]; [5]", "value": "41.0 ± 12.7", "unit": "L"}, {"measurement": "AI", "setting": "[1]; [6]", "value": "1.000 ± 0.312"}, {"measurement": "CL/F", "setting": "[1]; [6]", "value": "3.79 ± 1.07", "unit": "L/h"}, {"measurement": "Cmin", "setting": "[1]; [6]", "value": "0.000 ± 0.000", "unit": "ng/mL"}, {"measurement": "DFL", "setting": "[1]; [6]", "value": "4.637 ± 1.397"}, {"measurement": "Vdβ/F", "setting": "[1]; [6]", "value": "42.1 ± 28.7^δ L"}, {"measurement": "AUC(0-inf)", "setting": "[1]; [7]", "value": "1.11 ± 0.342", "unit": "ng·h/mL"}, {"measurement": "Cmax", "setting": "[1]; [7]", "value": "0.1 ± 0.033", "unit": "ng/mL"}, {"measurement": "Tmax", "setting": "[1]; [7]", "value": "4.8 ± 2.8", "unit": "h"}, {"measurement": "half-life", "setting": "[1]; [7]", "value": "6.2 ± 2.1", "unit": "h"}, {"measurement": "AUC(0-t)", "setting": "[1]; 4 ug, Regimen A 4 μg QD, Study Day 1, read-out: AUC0-t", "value": "0.701 ± 0.339", "unit": "ng·h/mL"}, {"measurement": "Cmax", "setting": "[1]; [8]", "value": "0.112 ± 0.031", "unit": "ng/mL"}, {"measurement": "Tmax", "setting": "[1]; [8]", "value": "4.4 ± 2.6", "unit": "h"}, {"measurement": "half-life", "setting": "[1]; [8]", "value": "6.8 ± 3.1", "unit": "h"}, {"measurement": "AUC(0-t)", "setting": "[1]; 4 ug, Regimen A 4 μg QD, Study Day 12, read-out: AUC0-τ (AUC0-24)", "value": "1.07 ± 0.359", "unit": "ng·h/mL"}, {"measurement": "Cmax", "setting": "[1]; [9]", "value": "0.105 ± 0.035", "unit": "ng/mL"}, {"measurement": "Tmax", "setting": "[1]; [9]", "value": "4.5 ± 1.6", "unit": "h"}, {"measurement": "half-life", "setting": "[1]; [9]", "value": "5.8 ± 2.5", "unit": "h"}, {"measurement": "AUC(0-t)", "setting": "[1]; 4 ug, Regimen A 4 μg QD, Study Day 13, read-out: AUC0-τ (AUC0-24)", "value": "0.904 ± 0.196", "unit": "ng·h/mL"}, {"measurement": "AUC(0-inf)", "setting": "[1]; [10]", "value": "2.55 ± 1.08", "unit": "ng·h/mL"}, {"measurement": "Cmax", "setting": "[1]; [10]", "value": "0.2 ± 0.062", "unit": "ng/mL"}, {"measurement": "Tmax", "setting": "[1]; [10]", "value": "4.4 ± 1.4", "unit": "h"}, {"measurement": "half-life", "setting": "[1]; [10]", "value": "7.3 ± 3.2", "unit": "h"}, {"measurement": "AUC(0-t)", "setting": "[1]; 8 ug, Regimen B 8 μg TIW, Study Day 1, read-out: AUC0-t", "value": "2.05 ± 0.881", "unit": "ng·h/mL"}, {"measurement": "Cmax", "setting": "[1]; [11]", "value": "0.217 ± 0.077", "unit": "ng/mL"}, {"measurement": "Tmax", "setting": "[1]; [11]", "value": "4.3 ± 2.6", "unit": "h"}, {"measurement": "half-life", "setting": "[1]; [11]", "value": "6.8 ± 2.2", "unit": "h"}, {"measurement": "AUC(0-t)", "setting": "[1]; 8 ug, Regimen B 8 μg TIW, Study Day 12 and 13, read-out: AUC0-τ (AUC0-48)", "value": "2.26 ± 0.566", "unit": "ng·h/mL"}, {"measurement": "dose proportionality of pharmacokinetics", "setting": "[1]; single dose and steady state over the studied dose range", "value": "dose proportional"}, {"measurement": "PTH levels", "setting": "[2]; [12]", "value": "significant decrease"}, {"measurement": "calcium, phosphorus, Ca×P levels", "setting": "[2]; [12]", "value": "increases"}, {"measurement": "Ca/Creatinine, urine over 24 hours after dose", "setting": "[2]; [13]", "value": "0.045 ± 0.051"}, {"measurement": "Calcium, total amount excreted in urine over 24 hours after dose", "setting": "[2]; [13]", "value": "49.39 ± 56.85", "unit": "mg"}, {"measurement": "Creatinine, total amount excreted in urine over 24 hours after dose", "setting": "[2]; [13]", "value": "1326.7 ± 566.1", "unit": "mg"}, {"measurement": "DPD, total amount excreted in urine over 24 hours after dose", "setting": "[2]; [13]", "value": "52.03 ± 18.96", "unit": "nmol"}, {"measurement": "Ca/Creatinine, urine over 24 hours after dose", "setting": "[2]; [14]", "value": "0.074 ± 0.078"}, {"measurement": "Calcium, total amount excreted in urine over 24 hours after dose", "setting": "[2]; [14]", "value": "79.24 ± 63.27", "unit": "mg"}, {"measurement": "Creatinine, total amount excreted in urine over 24 hours after dose", "setting": "[2]; [14]", "value": "1324.4 ± 402.0", "unit": "mg"}, {"measurement": "DPD, total amount excreted in urine over 24 hours after dose", "setting": "[2]; [14]", "value": "58.60 ± 16.45", "unit": "nmol"}, {"measurement": "24-hour urinary excretion of calcium", "setting": "[2]; repeated dosing", "value": "does not affect"}, {"measurement": "Ca/Creatinine, urine over 24 hours after dose", "setting": "[2]; [15]", "value": "0.028 ± 0.019"}, {"measurement": "Calcium, total amount excreted in urine over 24 hours after dose", "setting": "[2]; [15]", "value": "29.18 ± 20.97", "unit": "mg"}, {"measurement": "Creatinine, total amount excreted in urine over 24 hours after dose", "setting": "[2]; [15]", "value": "1088.3 ± 278.6", "unit": "mg"}, {"measurement": "DPD, total amount excreted in urine over 24 hours after dose", "setting": "[2]; [15]", "value": "48.34 ± 21.04", "unit": "nmol"}, {"measurement": "Calcium, total amount excreted in urine over 24 hours after dose", "setting": "[2]; [16]", "value": "50.92 ± 41.18", "unit": "mg"}, {"measurement": "DPD, total amount excreted in urine over 24 hours after dose", "setting": "[2]; [16]", "value": "47.74 ± 20.47", "unit": "nmol"}]}
